Data reported in ChEMBL document CHEMBL3352200, “Thio-sugar motif of functional CARB-pharmacophore for antineoplastic activity. Part 2” (Bioorg Med Chem Lett, 2014).
Each block holds one compound with its values, some of them ahead of it.

How the values were obtained:
A549 [1] = assay: Cytotoxicity against human A549 cells after 14 hrs by CCK-8 assay; assay type: functional, cell-based; settings: A549, 14 h
HeLa [2] = assay: Cytotoxicity against human HeLa cells after 14 hrs by CCK-8 assay; assay type: functional, cell-based
MCF7 [3] = assay: Cytotoxicity against human MCF7 cells after 14 hrs by CCK-8 assay; assay type: functional, cell-based; settings: MCF7, 14 h
LoVo [4] = assay: Cytotoxicity against human LoVo cells after 14 hrs by CCK-8 assay; assay type: functional, cell-based
[5] = Cytotoxicity against human PNT2 cells at 8.6 to 2200 uM after 14 hrs by CCK-8 assay; assay type: cell-based; settings: pnt2, 14 h
LoVo [6] = assay: Induction of apoptosis in human LoVo cells assessed as viable cells at 34 uM after 4 hrs by FITC Annexin-V/propidium iodide staining-based flow cytometry (reference value: 79.50%); assay type: functional; settings: read-out: Activity
LoVo [7] = assay: Induction of apoptosis in human LoVo cells assessed as viable cells at 275 uM after 4 hrs by FITC Annexin-V/propidium iodide staining-based flow cytometry (reference value: 79.50%); assay type: functional; settings: read-out: Activity
LoVo [8] = assay: Induction of apoptosis in human LoVo cells assessed as apoptotic cells at 34 uM after 4 hrs by FITC Annexin-V/propidium iodide staining-based flow cytometry (reference value: 20.50%); assay type: functional
LoVo [9] = assay: Induction of apoptosis in human LoVo cells assessed as apoptotic cells at 275 uM after 4 hrs by FITC Annexin-V/propidium iodide staining-based flow cytometry (reference value: 20.50%); assay type: functional
A549 [10] = assay: Induction of apoptosis in human A549 cells assessed as viable cells at 17 uM after 4 hrs by FITC Annexin-V/propidium iodide staining-based flow cytometry (reference value: 84.40%); assay type: functional; settings: A549, 4 h, read-out: Activity
A549 [11] = assay: Induction of apoptosis in human A549 cells assessed as viable cells at 137 uM after 4 hrs by FITC Annexin-V/propidium iodide staining-based flow cytometry (reference value: 84.40%); assay type: functional; settings: A549, 4 h, read-out: Activity
A549 [12] = assay: Induction of apoptosis in human A549 cells assessed as apoptotic cells at 17 uM after 4 hrs by FITC Annexin-V/propidium iodide staining-based flow cytometry (reference value: 15.60%); assay type: functional
A549 [13] = assay: Induction of apoptosis in human A549 cells assessed as apoptotic cells at 137 uM after 4 hrs by FITC Annexin-V/propidium iodide staining-based flow cytometry (reference value: 15.60%); assay type: functional
MCF7 [14] = assay: Induction of apoptosis in human MCF7 cells assessed as viable cells at 34 uM after 4 hrs by FITC Annexin-V/propidium iodide staining-based flow cytometry (reference value: 70.40%); assay type: functional; settings: MCF7, 4 h, read-out: Activity
MCF7 [15] = assay: Induction of apoptosis in human MCF7 cells assessed as viable cells at 275 uM after 4 hrs by FITC Annexin-V/propidium iodide staining-based flow cytometry (reference value: 70.40%); assay type: functional; settings: MCF7, 4 h, read-out: Activity
MCF7 [16] = assay: Induction of apoptosis in human MCF7 cells assessed as apoptotic cells at 34 uM after 4 hrs by FITC Annexin-V/propidium iodide staining-based flow cytometry (reference value: 29.60%); assay type: functional
MCF7 [17] = assay: Induction of apoptosis in human MCF7 cells assessed as apoptotic cells at 275 uM after 4 hrs by FITC Annexin-V/propidium iodide staining-based flow cytometry (reference value: 29.60%); assay type: functional
HeLa [18] = assay: Induction of apoptosis in human HeLa cells assessed as viable cells at 17 uM after 4 hrs by FITC Annexin-V/propidium iodide staining-based flow cytometry (reference value: 87.00%); assay type: functional; settings: read-out: Activity
HeLa [19] = assay: Induction of apoptosis in human HeLa cells assessed as viable cells at 137 uM after 4 hrs by FITC Annexin-V/propidium iodide staining-based flow cytometry (reference value: 87.00%); assay type: functional; settings: read-out: Activity
HeLa [20] = assay: Induction of apoptosis in human HeLa cells assessed as apoptotic cells at 17 uM after 4 hrs by FITC Annexin-V/propidium iodide staining-based flow cytometry (reference value: 13.00%); assay type: functional
HeLa [21] = assay: Induction of apoptosis in human HeLa cells assessed as apoptotic cells at 137 uM after 4 hrs by FITC Annexin-V/propidium iodide staining-based flow cytometry (reference value: 13.00%); assay type: functional
[22] = Lipophilicity, log P of the compound; assay type: physicochemical; settings: octanol/water
LoVo [23] = assay: Induction of apoptosis in human LoVo cells assessed as viable cells at 69 uM after 4 hrs by FITC Annexin-V/propidium iodide staining-based flow cytometry (reference value: 79.50%); assay type: functional; settings: read-out: Activity
LoVo [24] = assay: Induction of apoptosis in human LoVo cells assessed as viable cells at 550 uM after 4 hrs by FITC Annexin-V/propidium iodide staining-based flow cytometry (reference value: 79.50%); assay type: functional; settings: read-out: Activity
LoVo [25] = assay: Induction of apoptosis in human LoVo cells assessed as apoptotic cells at 69 uM after 4 hrs by FITC Annexin-V/propidium iodide staining-based flow cytometry (reference value: 20.50%); assay type: functional
LoVo [26] = assay: Induction of apoptosis in human LoVo cells assessed as apoptotic cells at 550 uM after 4 hrs by FITC Annexin-V/propidium iodide staining-based flow cytometry (reference value: 20.50%); assay type: functional
A549 [27] = assay: Induction of apoptosis in human A549 cells assessed as viable cells at 34 uM after 4 hrs by FITC Annexin-V/propidium iodide staining-based flow cytometry (reference value: 84.40%); assay type: functional; settings: A549, 4 h, read-out: Activity
A549 [28] = assay: Induction of apoptosis in human A549 cells assessed as viable cells at 275 uM after 4 hrs by FITC Annexin-V/propidium iodide staining-based flow cytometry (reference value: 84.40%); assay type: functional; settings: A549, 4 h, read-out: Activity
A549 [29] = assay: Induction of apoptosis in human A549 cells assessed as apoptotic cells at 34 uM after 4 hrs by FITC Annexin-V/propidium iodide staining-based flow cytometry (reference value: 15.60%); assay type: functional
A549 [30] = assay: Induction of apoptosis in human A549 cells assessed as apoptotic cells at 275 uM after 4 hrs by FITC Annexin-V/propidium iodide staining-based flow cytometry (reference value: 15.60%); assay type: functional
MCF7 [31] = assay: Induction of apoptosis in human MCF7 cells assessed as viable cells at 17 uM after 4 hrs by FITC Annexin-V/propidium iodide staining-based flow cytometry (reference value: 70.40%); assay type: functional; settings: MCF7, 4 h, read-out: Activity
MCF7 [32] = assay: Induction of apoptosis in human MCF7 cells assessed as viable cells at 137 uM after 4 hrs by FITC Annexin-V/propidium iodide staining-based flow cytometry (reference value: 70.40%); assay type: functional; settings: MCF7, 4 h, read-out: Activity
MCF7 [33] = assay: Induction of apoptosis in human MCF7 cells assessed as apoptotic cells at 17 uM after 4 hrs by FITC Annexin-V/propidium iodide staining-based flow cytometry (reference value: 29.60%); assay type: functional
MCF7 [34] = assay: Induction of apoptosis in human MCF7 cells assessed as apoptotic cells at 137 uM after 4 hrs by FITC Annexin-V/propidium iodide staining-based flow cytometry (reference value: 29.60%); assay type: functional

logP [22]: -1.13
SMILES: CC(=O)OC[C@H]1O[C@@H](S[C@H]2CC(=O)[C@@H]3OC[C@H]2O3)[C@H](OC(C)=O)[C@@H](OC(C)=O)[C@H]1OC(C)=O
IC50 (A549 [1]): 467 µM
IC50 (HeLa [2]): 676 µM
IC50 (MCF7 [3]): 344 µM
IC50 (LoVo [4]): 624 µM
Activity [5]: 10%
viability at 34 µM (LoVo [6]): 65.1%
viability at 275 µM (LoVo [7]): 70%
Activity (LoVo [8]): 34.9%
Activity (LoVo [9]): 30%
viability at 17 µM (A549 [10]): 71%
viability at 137 µM (A549 [11]): 78.1%
Activity (A549 [12]): 29%
Activity (A549 [13]): 21.9%
viability at 34 µM (MCF7 [14]): 57.8%
viability at 275 µM (MCF7 [15]): 80.8%
Activity (MCF7 [16]): 42.2%
Activity (MCF7 [17]): 19.2%
viability at 17 µM (HeLa [18]): 74.1%
viability at 137 µM (HeLa [19]): 37.2%
Activity (HeLa [20]): 25.9%
Activity (HeLa [21]): 62.8%

logP [22]: 1.28
SMILES: O=C(O)c1ccccc1S[C@H]1CC(=O)[C@@H]2OC[C@H]1O2
IC50 (A549 [1]): 311 µM
IC50 (HeLa [2]): 434 µM
IC50 (MCF7 [3]): 218 µM
IC50 (LoVo [4]): 641 µM
Activity [5]: 10%
viability at 69 µM (LoVo [23]): 70.9%
viability at 550 µM (LoVo [24]): 37.8%
Activity (LoVo [25]): 29.1%
Activity (LoVo [26]): 62.2%
viability at 34 µM (A549 [27]): 72.6%
viability at 275 µM (A549 [28]): 62.2%
Activity (A549 [29]): 27.4%
Activity (A549 [30]): 37.84%
viability at 17 µM (MCF7 [31]): 60.9%
viability at 137 µM (MCF7 [32]): 37.5%
Activity (MCF7 [33]): 39.1%
Activity (MCF7 [34]): 62.5%
viability at 17 µM (HeLa [18]): 75.5%
viability at 137 µM (HeLa [19]): 74.2%
Activity (HeLa [20]): 24.5%
Activity (HeLa [21]): 25.8%
